From US11208400B2, “Substituted 6-(1H-pyrazol-1-yl)pyrimidin-4-amine derivatives and uses thereof” (Bayer Aktiengesellschaft, priority 2016, dated 2021)

Each compound was assayed against T1, human Npt2a (Homo sapiens, UniProt Q06495) (assay: Npt2a activity cell based assay, membrane potential dye, CHO T-REx hNpt2a cells). Conditions: doxycycline-induced, depolarization by sodium phosphate influx, average or median values if tested more than once.
T1 construct: expressed in transfected cells
T1 sequence (Q06495 1-639): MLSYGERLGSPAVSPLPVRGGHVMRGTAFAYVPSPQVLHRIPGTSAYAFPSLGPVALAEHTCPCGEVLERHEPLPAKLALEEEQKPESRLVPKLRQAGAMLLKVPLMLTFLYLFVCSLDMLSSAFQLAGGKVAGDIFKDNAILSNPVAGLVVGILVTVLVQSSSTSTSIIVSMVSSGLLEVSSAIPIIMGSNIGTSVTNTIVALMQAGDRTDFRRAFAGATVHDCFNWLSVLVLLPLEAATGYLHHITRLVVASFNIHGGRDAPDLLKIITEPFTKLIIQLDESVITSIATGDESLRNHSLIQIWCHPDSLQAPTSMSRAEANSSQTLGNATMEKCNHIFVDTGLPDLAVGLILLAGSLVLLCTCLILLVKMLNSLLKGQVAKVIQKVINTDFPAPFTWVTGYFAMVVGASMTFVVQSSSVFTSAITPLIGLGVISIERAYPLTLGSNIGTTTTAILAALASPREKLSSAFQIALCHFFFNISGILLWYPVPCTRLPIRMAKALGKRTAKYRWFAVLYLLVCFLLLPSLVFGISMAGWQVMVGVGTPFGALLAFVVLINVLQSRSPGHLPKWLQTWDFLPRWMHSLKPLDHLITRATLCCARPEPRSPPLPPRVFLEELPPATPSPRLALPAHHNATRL
Outline: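 Doxycycline-induced (0.5 μg/mL, 24 h) CHO T-REx cells were loaded with membrane potential dye in sodium-free NHE buffer (pH 7.4) and exposed to compound (50 μM–1 nM, 5 min, room temperature).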

Question: `Cc1nn(-c2cc(Nc3c(C4CC4)c(-c4ccc(F)cc4)nn3C)ncn2)c2ccccc12` [Example 47, N-[4-cyclopropyl-3-(4-fluorophenyl)-1-methyl-1H-pyrazol-5-yl]-6-(3-methyl-1H-indazol-1-yl)pyrimidin-4-amine] was tested. Which IC50 did it give?
Answer: 89 nM

Question: With `Cc1cc(C)n(-c2cc(Nc3c(C)c(-c4ccc(OC(F)F)cc4)nn3CC3CC3)ncn2)n1` [Example 476, N-{1-(cyclopropylmethyl)-3-[4-(difluoromethoxy)phenyl]-4-methyl-1H-pyrazol-5-yl}-6-(3,5-dimethyl-1H-pyrazol-1-yl)pyrimidin-4-amine] as the compound, how does the IC50 read?
Answer: 29 nM

Question: With `Cc1nn(-c2cc(Nc3c(C)c(-c4ccc(C(F)F)cc4)nn3CC3CC3)ncn2)c(C)c1C(O)C1CC1` (single isomer, unassigned) [Example 496, Cyclopropyl {1-[6-({1-(cyclopropylmethyl)-3-[4-(difluoromethyl)phenyl]-4-methyl-1H-pyrazol-5-yl}amino)pyrimidin-4-yl]-3,5-dimethyl-1H-pyrazol-4-yl}methanol] as the compound, how does the IC50 read?
Answer: 230 nM

Question: For `CCc1c(Nc2cc(-n3nc(C)cc3C)ncn2)nn(CC(F)F)c1-c1ccc(F)cc1` [Example 173, N-[1-(2,2-difluoroethyl)-4-ethyl-5-(4-fluorophenyl)-1H-pyrazol-3-yl]-6-(3,5-dimethyl-1H-pyrazol-1-yl)pyrimidin-4-amine], which IC50 is on record?
Answer: 16 nM

Question: With `Cc1nn(-c2cc(Nc3c(C)c(-c4ccc(C(F)(F)F)cc4)nn3CC3CC3)ncn2)c(C(C)(C)O)c1Cl` [Example 294, 2-{4-chloro-1-[6-({1-(cyclopropylmethyl)-4-methyl-3-[4-(trifluoromethyl)phenyl]-1H-pyrazol-5-yl}amino)pyrimidin-4-yl]-3-methyl-1H-pyrazol-5-yl}propan-2-ol] as the compound, how does the IC50 read?
Answer: 1400 nM

Question: Which IC50 does the source give for `Cc1cc(C)n(-c2cc(Nc3nn(C)c(-c4ccc(F)cc4)c3C)ncn2)n1` [Example 73, 6-(3,5-dimethyl-1H-pyrazol-1-yl)-N-[5-(4-fluorophenyl)-1,4-dimethyl-1H-pyrazol-3-yl]pyrimidin-4-amine] here?
Answer: 15.7 nM

Question: `Cc1cc(C)n(-c2cc(Nc3c(C)c(-c4ccc(C#N)cc4)nn3CC3CC3)ncn2)n1` [Example 141, 4-[1-(cyclopropylmethyl)-5-{[6-(3,5-dimethyl-1H-pyrazol-1-yl)pyrimidin-4-yl]amino}-4-methyl-1H-pyrazol-3-yl]benzonitrile] was tested. Which IC50 did it give?
Answer: 3 nM

Question: For `Cc1cc(C)n(-c2cc(Nc3nn(C)c(-c4ccc(C#N)cc4)c3C)ncn2)n1` [Example 118, 4-(3-{[6-(3,5-dimethyl-1H-pyrazol-1-yl)pyrimidin-4-yl]amino}-1,4-dimethyl-1H-pyrazol-5-yl)benzonitrile], which IC50 is on record?
Answer: 7 nM

Question: `CCc1c(Nc2cc(-n3nc(C)c(C4(O)CCC4)c3C)ncn2)nn(C)c1-c1ccc(F)cc1` [Example 215, 1-[1-(6-{[4-ethyl-5-(4-fluorophenyl)-1-methyl-1H-pyrazol-3-yl]amino}pyrimidin-4-yl)-3,5-dimethyl-1H-pyrazol-4-yl]cyclobutanol] was tested. Which IC50 did it give?
Answer: 250 nM

Question: How did the IC50 turn out when `Cc1cc(C(F)F)n(-c2cc(Nc3c(C)c(-c4ccc(C(F)F)nc4)nn3C)ncn2)n1` [Example 481, 6-[5-(difluoromethyl)-3-methyl-1H-pyrazol-1-yl]-N-{3-[6-(difluoromethyl)pyridin-3-yl]-1,4-dimethyl-1H-pyrazol-5-yl}pyrimidin-4-amine] was run?
Answer: 1400 nM

Question: With `CCc1c(Nc2cc(-n3cc4c(n3)CCC4)ncn2)n[nH]c1-c1ccc(F)cc1` [Example 20, 6-(5,6-dihydrocyclopenta[c]pyrazol-2(4H)-yl)-N-[4-ethyl-5-(4-fluorophenyl)-1H-pyrazol-3-yl]pyrimidin-4-amine] as the compound, how does the IC50 read?
Answer: 120 nM

Question: With `Cc1cc(C(F)F)n(-c2cc(Nc3c(C)c(-c4ccc(OC(F)F)cc4)nn3CC3CC3)ncn2)n1` [Example 475, N-{1-(cyclopropylmethyl)-3-[4-(difluoromethoxy)phenyl]-4-methyl-1H-pyrazol-5-yl}-6-[5-(difluoromethyl)-3-methyl-1H-pyrazol-1-yl]pyrimidin-4-amine] as the compound, how does the IC50 read?
Answer: 215 nM

Question: `Cc1nn(-c2cc(Nc3c(C)c(-c4ccc(C(F)F)nc4)nn3C)ncn2)c(C)c1F` [Example 485, N-{3-[6-(difluoromethyl)pyridin-3-yl]-1,4-dimethyl-1H-pyrazol-5-yl}-6-(4-fluoro-3,5-dimethyl-1H-pyrazol-1-yl)pyrimidin-4-amine] was tested. Which IC50 did it give?
Answer: 1350 nM

Question: How did the IC50 turn out when `Cc1cc(C)n(-c2cc(Nc3n[nH]c(-c4ccc(C#N)cc4)c3C)ncn2)n1` [Example 135, 4-(3-{[6-(3,5-dimethyl-1H-pyrazol-1-yl)pyrimidin-4-yl]amino}-4-methyl-1H-pyrazol-5-yl)benzonitrile] was run?
Answer: 700 nM

Question: Which IC50 does the source give for `Cc1cc(C)n(-c2cc(Nc3nn(C)c(-c4ccccc4)c3Cl)ncn2)n1` [Example 52, N-(4-chloro-1-methyl-5-phenyl-1H-pyrazol-3-yl)-6-(3,5-dimethyl-1H-pyrazol-1-yl)pyrimidin-4-amine] here?
Answer: 83 nM

Question: `COc1c(Nc2cc(-n3nc(C)c(C(O)C4CC4)c3C)ncn2)nn(C)c1-c1ccc(C#N)cc1` (racemic) [Example 459, (±)-4-{3-[(6-{4-[cyclopropyl(hydroxy)methyl]-3,5-dimethyl-1H-pyrazol-1-yl}pyrimidin-4-yl)amino]-4-methoxy-1-methyl-1H-pyrazol-5-yl}benzonitrile] was tested. Which IC50 did it give?
Answer: 46 nM

Question: With `COc1c(-c2ccc(C#N)cc2)nn(C)c1Nc1cc(-n2nc(C)cc2C(F)F)ncn1` [Example 411, 4-[5-({6-[5-(difluoromethyl)-3-methyl-1H-pyrazol-1-yl]pyrimidin-4-yl}amino)-4-methoxy-1-methyl-1H-pyrazol-3-yl]benzonitrile] as the compound, how does the IC50 read?
Answer: 150 nM

Question: For `Cc1nn(-c2cc(Nc3nn(C)c(-c4ccc(C(F)(F)F)nc4)c3C)ncn2)c(C)c1Cl` [Example 553, 6-(4-chloro-3,5-dimethyl-1H-pyrazol-1-yl)-N-{1,4-dimethyl-5-[6-(trifluoromethyl)pyridin-3-yl]-1H-pyrazol-3-yl}pyrimidin-4-amine], which IC50 is on record?
Answer: 7.2 nM

Question: `CCOC(=O)c1c(C)nn(-c2cc(Nc3nn(CC(F)F)c(-c4ccc(F)cc4)c3CC)ncn2)c1C` [Example 177, ethyl 1-(6-{[1-(2,2-difluoroethyl)-4-ethyl-5-(4-fluorophenyl)-1H-pyrazol-3-yl]amino}pyrimidin-4-yl)-3,5-dimethyl-1H-pyrazole-4-carboxylate] was tested. Which IC50 did it give?
Answer: 41 nM

Question: For `Cc1c(-c2ccc(F)cc2)nn(CC2CC2)c1Nc1cc(-n2[nH]c3c(c2=O)CCCC3)ncn1` [Example 416, 2-(6-{[1-(cyclopropylmethyl)-3-(4-fluorophenyl)-4-methyl-1H-pyrazol-5-yl]amino}pyrimidin-4-yl)-1,2,4,5,6,7-hexahydro-3H-indazol-3-one], which IC50 is on record?
Answer: 1150 nM

Question: For `Cc1cc(C)n(-c2cc(Nc3c(C)c(-c4ccc(C(F)(F)F)nc4)nn3C)ncn2)n1` [Example 549, 6-(3,5-dimethyl-H-pyrazol-1-yl)-N-{1,4-dimethyl-3-[6-(trifluoromethyl)pyridin-3-yl]-1H-pyrazol-5-yl}pyrimidin-4-amine], which IC50 is on record?
Answer: 2600 nM

Question: For `CNc1ccc(-c2nn(CCOC)c(Nc3cc(-n4nc(C)c(Cl)c4C)ncn3)c2C)cc1` [Example 521, 6-(4-chloro-3,5-dimethyl-1H-pyrazol-1-yl)-N-{1-(2-methoxyethyl)-4-methyl-3-[4-(methylamino)phenyl]-1H-pyrazol-5-yl}pyrimidin-4-amine], which IC50 is on record?
Answer: 8 nM

Question: For `CCOC(=O)c1c(C)nn(-c2cc(Nc3c(OC)c(-c4ccc(C#N)cc4)nn3C)ncn2)c1C` [Example 446, ethyl 1-(6-{[3-(4-cyanophenyl)-4-methoxy-1-methyl-1H-pyrazol-5-yl]amino}pyrimidin-4-yl)-3,5-dimethyl-1H-pyrazole-4-carboxylate], which IC50 is on record?
Answer: 12 nM

Question: For `Cc1nn(-c2cc(Nc3c(Cl)c(-c4ccc(F)cc4F)nn3C)ncn2)c(C)c1Cl` [Example 48, N-[4-chloro-3-(2,4-difluorophenyl)-1-methyl-1H-pyrazol-5-yl]-6-(4-chloro-3,5-dimethyl-1H-pyrazol-1-yl)pyrimidin-4-amine], which IC50 is on record?
Answer: 310 nM

Question: How did the IC50 turn out when `Cc1nn(-c2cc(Nc3nn(CC4CC4)c(-c4ccc(F)cc4)c3C)ncn2)c(C)c1Cl` [Example 170, 6-(4-chloro-3,5-dimethyl-1H-pyrazol-1-yl)-N-[1-(cyclopropylmethyl)-5-(4-fluorophenyl)-4-methyl-1H-pyrazol-3-yl]pyrimidin-4-amine] was run?
Answer: 440 nM

Question: How did the IC50 turn out when `Cc1nn(-c2cc(Nc3c(C)c(-c4ccc(C#N)cc4)nn3CC3CC3)ncn2)c(C)c1C(F)(F)F` [Example 373, 4-[1-(cyclopropylmethyl)-5-({6-[3,5-dimethyl-4-(trifluoromethyl)-1H-pyrazol-1-yl]pyrimidin-4-yl}amino)-4-methyl-1H-pyrazol-3-yl]benzonitrile] was run?
Answer: 5 nM

Question: With `Cc1nn(-c2cc(Nc3c(C)c(-c4ccc(C(F)(F)F)cc4)nn3C)ncn2)c(C)c1C(C)(C)O` [Example 379, 2-{1-[6-({1,4-dimethyl-3-[4-(trifluoromethyl)phenyl]-1H-pyrazol-5-yl}amino)pyrimidin-4-yl]-3,5-dimethyl-1H-pyrazol-4-yl}propan-2-ol] as the compound, how does the IC50 read?
Answer: 880 nM

Question: How did the IC50 turn out when `COc1c(-c2ccc(C#N)cc2)nn(CC2CC2)c1Nc1cc(-n2nc(C)cc2C)ncn1` [Example 316, 4-[1-(cyclopropylmethyl)-5-{[6-(3,5-dimethyl-1H-pyrazol-1-yl)pyrimidin-4-yl]amino}-4-methoxy-1H-pyrazol-3-yl]benzonitrile] was run?
Answer: 81 nM
